Measurements from ChEMBL document CHEMBL3352741, “Discovery of VU0431316: a negative allosteric modulator of mGlu5 with activity in a mouse model of anxiety” (Bioorg Med Chem Lett, 2014).
Blank lines part the entries; values can stand above or below the compound they belong to. Active and inactive are the calls of the source. The rule behind the calls is not given here.

Columns and labels:
[1] = molecular target: T1, Metabotropic glutamate receptor 5 (Rattus norvegicus, UniProt P31424); assay: Negative allosteric modulator activity at rat mGlu5 expressed in HEK293A cells assessed as reduction in glutamate-induced calcium mobilization; format: functional, cell-based, HEK293-A
[2] = molecular target: Metabotropic glutamate receptor 5 (Rattus norvegicus) (UniProt P31424); assay: Negative allosteric modulator activity at rat mGlu5 expressed in HEK293A cells assessed as reduction in 100 uM glutamate-induced calcium mobilization at 30 uM; format: functional, cell-based; conditions: HEK293-A
[3] = Clearance in Sprague-Dawley rat at 1 mg/kg, iv after 2 to 1440 mins by LC-MS/MS method; format: ADME, organism-based; design: dose 1 mg/kg, route intravenous; conditions: in vivo
[4] = Drug level in Sprague-Dawley rat hepatic portal vein at 10 mg/kg, po administered as single dose after 60 mins by LC-MS/MS method; format: ADME, organism-based; design: dose 10 mg/kg, route oral; conditions: read-out: Drug uptake
[5] = molecular target: T1, Metabotropic glutamate receptor 5; assay: Displacement of [3H]methoxyPEPy from rat mGlu5 expressed in HEK293A cells after 1 hr by scintillation counting method; format: cell-based, HEK293-A
[6] = Half life in Sprague-Dawley rat at 1 mg/kg, iv after 2 to 1440 mins by LC-MS/MS method; format: ADME, organism-based; design: dose 1 mg/kg, route intravenous; conditions: in vivo
[7] = AUC in Sprague-Dawley rat at 10 mg/kg, po administered as single dose after 15 to 1440 mins by LC-MS/MS method; format: ADME, organism-based; design: dose 10 mg/kg, route oral; conditions: plasma
Cytochrome P450 2D6 = Cytochrome P450 2D6 (Homo sapiens, UniProt P10635); assay: Inhibition of CYP2D6 in pooled human liver microsomes in presence of NADPH; format: ADME
[8] = Apparent permeability from basolateral to apical side in human Caco2 cells; format: ADME, cell-based; conditions: caco-2
[9] = Efflux ratio in human Caco2 cells; format: ADME, cell-based; conditions: caco-2
[10] = Cmax in Sprague-Dawley rat at 10 mg/kg, po administered as single dose after 15 to 1440 mins by LC-MS/MS method; format: ADME, organism-based; design: dose 10 mg/kg, route oral; conditions: in vivo
[11] = molecular target: Metabotropic glutamate receptor 1 (Rattus norvegicus) (UniProt P23385); assay: Activity at rat mGlu1 expressed in HEK293 cells at 10 uM by calcium flux assay; format: functional, cell-based
Cytochrome P450 1A2 = molecular target: T2, Cytochrome P450 1A2 (Homo sapiens, UniProt P05177); assay: Inhibition of CYP1A2 in pooled human liver microsomes in presence of NADPH; format: ADME
T2 sequence (P05177 whole entry): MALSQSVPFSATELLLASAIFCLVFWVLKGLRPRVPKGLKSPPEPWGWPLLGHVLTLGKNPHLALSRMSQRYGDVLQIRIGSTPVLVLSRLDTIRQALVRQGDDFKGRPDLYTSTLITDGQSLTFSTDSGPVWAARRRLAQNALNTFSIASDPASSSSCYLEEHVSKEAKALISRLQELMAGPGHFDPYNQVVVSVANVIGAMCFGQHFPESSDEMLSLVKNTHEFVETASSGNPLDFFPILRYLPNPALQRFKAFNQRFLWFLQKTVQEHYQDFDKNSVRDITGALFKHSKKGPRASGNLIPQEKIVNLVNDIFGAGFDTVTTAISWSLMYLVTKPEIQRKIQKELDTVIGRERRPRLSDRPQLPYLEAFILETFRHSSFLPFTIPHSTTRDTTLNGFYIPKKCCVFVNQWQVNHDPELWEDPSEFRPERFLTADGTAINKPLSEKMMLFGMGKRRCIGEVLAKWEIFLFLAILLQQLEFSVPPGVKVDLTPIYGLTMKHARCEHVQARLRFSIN

[12] = Oral bioavailability in Sprague-Dawley rat at 10 mg/kg administered as single dose after 15 to 1440 mins by LC-MS/MS method; format: ADME, organism-based; conditions: in vivo
Brain = assay: Fraction unbound in mouse brain homogenates by equilibrium dialysis method; format: ADME, tissue-based; conditions: brain homogenate
[13] = molecular target: Metabotropic glutamate receptor 2 (Homo sapiens) (UniProt Q14416); assay: Activity at mGlu2 (unknown origin) expressed in HEK293-GIRK cells at 10 uM by thallium flux assay; format: cell-based
[14] = molecular target: Metabotropic glutamate receptor 5 (Homo sapiens, UniProt P41594); assay: Negative allosteric modulator activity at human mGlu5 assessed as reduction in glutamate-induced calcium mobilization; format: functional
Plasma [15] = assay: Fraction unbound in human plasma by equilibrium dialysis method; format: ADME, cell-free
Mus musculus = assay: In vivo mGlu5 negative allosteric modulator activity in Harlan CD1 mouse marble burying model of anxiety assessed as reduction in marble burying at => 10 mg/kg, ip dosed 15 mins before test; format: functional, organism-based; design: dose 10 mg/kg
[16] = Drug level in Harlan CD1 mouse brain at 30 mg/kg, ip after 30 mins; format: ADME, organism-based; design: dose 30 mg/kg, route intraperitoneal; conditions: read-out: Drug uptake
[17] = molecular target: Metabotropic glutamate receptor 6 (Homo sapiens) (UniProt O15303); assay: Activity at mGlu6 (unknown origin) expressed in HEK293-GIRK cells at 10 uM by thallium flux assay; format: cell-based
[18] = Plasma concentration in Harlan CD1 mouse at 30 mg/kg, ip after 60 mins; format: ADME, organism-based; design: dose 30 mg/kg, route intraperitoneal
[19] = Tmax in Sprague-Dawley rat at 10 mg/kg, po administered as single dose after 15 to 1440 mins by LC-MS/MS method; format: ADME, organism-based; design: dose 10 mg/kg, route oral; conditions: in vivo
[20] = Drug level in Sprague-Dawley rat brain at 10 mg/kg, po administered as single dose after 60 mins by LC-MS/MS method; format: ADME, organism-based; design: dose 10 mg/kg, route oral; conditions: read-out: Drug uptake
[21] = Apparent permeability from apical to basolateral side in human Caco2 cells; format: ADME, cell-based; conditions: caco-2
[22] = Volume of distribution at steady state in Sprague-Dawley rat at 1 mg/kg, iv after 2 to 1440 mins by LC-MS/MS method; format: ADME, organism-based; design: dose 1 mg/kg, route intravenous; conditions: in vivo, read-out: Vdss
[23] = molecular target: Metabotropic glutamate receptor 8 (Homo sapiens) (UniProt O00222); assay: Activity at mGlu8 (unknown origin) expressed in HEK293-GIRK cells at 10 uM by thallium flux assay; format: cell-based
MDCK [24] = assay: Apparent permeability from basolateral to apical side in wild type MDCK cells; format: ADME, cell-based, Canis lupus familiaris; conditions: dog
[25] = Drug level in Harlan CD1 mouse brain at 30 mg/kg, ip after 60 mins; format: ADME, organism-based; design: dose 30 mg/kg, route intraperitoneal; conditions: read-out: Drug uptake
Cytochrome P450 2C9 = Cytochrome P450 2C9 (Homo sapiens, UniProt P11712); assay: Inhibition of CYP2C9 in pooled human liver microsomes in presence of NADPH; format: ADME
[26] = Plasma concentration in Harlan CD1 mouse at 30 mg/kg, ip after 30 mins; format: ADME, organism-based; design: dose 30 mg/kg, route intraperitoneal
[27] = Plasma concentration in Harlan CD1 mouse at 30 mg/kg, ip after 15 mins; format: ADME, organism-based; design: dose 30 mg/kg, route intraperitoneal
[28] = molecular target: Metabotropic glutamate receptor 7 (Homo sapiens) (UniProt Q14831); assay: Activity at mGlu7 (unknown origin) expressed in HEK293-GIRK cells at 10 uM by thallium flux assay; format: cell-based
Cytochrome P450 3A4 = Cytochrome P450 3A4 (Homo sapiens, UniProt P08684); assay: Inhibition of CYP3A4 in pooled human liver microsomes in presence of NADPH; format: ADME
MDCK [29] = assay: Apparent permeability from apical to basolateral side in wild type MDCK cells; format: ADME, cell-based, Canis lupus familiaris; conditions: dog
[30] = Drug level in Harlan CD1 mouse brain at 30 mg/kg, ip after 15 mins; format: ADME, organism-based; design: dose 30 mg/kg, route intraperitoneal; conditions: read-out: Drug uptake
MDCK [31] = assay: Efflux ratio in wild type MDCK cells; format: ADME, cell-based, Canis lupus familiaris; conditions: dog
[32] = molecular target: Metabotropic glutamate receptor 3 (Homo sapiens) (UniProt Q14832); assay: Activity at mGlu3 (unknown origin) expressed in HEK293-GIRK cells at 10 uM by thallium flux assay; format: cell-based
[33] = Plasma concentration in Sprague-Dawley rat at 10 mg/kg, po administered as single dose after 60 mins by LC-MS/MS method; format: ADME, organism-based; design: dose 10 mg/kg, route oral
[34] = AUC in Sprague-Dawley rat at 1 mg/kg, iv after 2 to 1440 mins by LC-MS/MS method; format: ADME, organism-based; design: dose 1 mg/kg, route intravenous; conditions: plasma
[35] = Ratio of drug level in brain to plasma in Sprague-Dawley rat at 10 mg/kg, po administered as single dose after 60 mins by LC-MS/MS method; format: ADME, organism-based; design: dose 10 mg/kg, route oral; conditions: read-out: BPR
[36] = molecular target: Metabotropic glutamate receptor 4 (Homo sapiens) (UniProt Q14833); assay: Activity at mGlu4 (unknown origin) expressed in HEK293-GIRK cells at 10 uM by thallium flux assay; format: cell-based
Plasma [37] = assay: Fraction unbound in rat plasma by equilibrium dialysis method; format: ADME, cell-free
Plasma [38] = assay: Fraction unbound in cynomolgus monkey plasma by equilibrium dialysis method; format: ADME, cell-free, Macaca fascicularis

Sequence of Metabotropic glutamate receptor 5 (Rattus norvegicus) (P31424 21-1203 limits assumed): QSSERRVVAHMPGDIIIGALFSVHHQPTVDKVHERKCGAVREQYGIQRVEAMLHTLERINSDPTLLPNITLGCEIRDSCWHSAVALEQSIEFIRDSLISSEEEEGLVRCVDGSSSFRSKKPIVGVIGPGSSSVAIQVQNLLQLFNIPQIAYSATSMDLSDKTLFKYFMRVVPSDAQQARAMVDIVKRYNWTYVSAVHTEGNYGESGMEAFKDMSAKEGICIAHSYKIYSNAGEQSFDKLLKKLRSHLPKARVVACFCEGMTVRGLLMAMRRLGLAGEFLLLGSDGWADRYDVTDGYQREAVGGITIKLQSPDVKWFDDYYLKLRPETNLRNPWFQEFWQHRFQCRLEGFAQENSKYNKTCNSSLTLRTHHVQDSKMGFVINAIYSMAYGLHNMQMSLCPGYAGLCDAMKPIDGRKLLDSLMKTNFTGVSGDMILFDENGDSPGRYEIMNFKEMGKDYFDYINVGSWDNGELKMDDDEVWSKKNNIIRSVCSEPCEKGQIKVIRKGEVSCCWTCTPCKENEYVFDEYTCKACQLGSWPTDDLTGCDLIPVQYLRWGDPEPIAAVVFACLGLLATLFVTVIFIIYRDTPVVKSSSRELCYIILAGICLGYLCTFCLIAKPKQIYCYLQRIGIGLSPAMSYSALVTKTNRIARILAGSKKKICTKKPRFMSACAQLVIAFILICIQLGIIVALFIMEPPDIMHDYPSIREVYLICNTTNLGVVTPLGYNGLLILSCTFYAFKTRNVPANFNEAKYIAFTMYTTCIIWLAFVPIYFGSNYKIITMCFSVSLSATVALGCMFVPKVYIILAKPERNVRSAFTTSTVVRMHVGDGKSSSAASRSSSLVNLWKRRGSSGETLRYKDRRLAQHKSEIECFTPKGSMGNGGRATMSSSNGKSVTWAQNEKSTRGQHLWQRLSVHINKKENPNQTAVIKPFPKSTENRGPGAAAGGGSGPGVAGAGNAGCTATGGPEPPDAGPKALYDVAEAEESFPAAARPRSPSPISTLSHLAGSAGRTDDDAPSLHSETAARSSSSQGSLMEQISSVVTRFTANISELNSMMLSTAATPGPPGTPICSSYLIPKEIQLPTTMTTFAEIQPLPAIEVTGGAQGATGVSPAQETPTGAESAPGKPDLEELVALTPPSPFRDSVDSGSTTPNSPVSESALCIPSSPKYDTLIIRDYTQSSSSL
T1 sequence (P31424 whole entry): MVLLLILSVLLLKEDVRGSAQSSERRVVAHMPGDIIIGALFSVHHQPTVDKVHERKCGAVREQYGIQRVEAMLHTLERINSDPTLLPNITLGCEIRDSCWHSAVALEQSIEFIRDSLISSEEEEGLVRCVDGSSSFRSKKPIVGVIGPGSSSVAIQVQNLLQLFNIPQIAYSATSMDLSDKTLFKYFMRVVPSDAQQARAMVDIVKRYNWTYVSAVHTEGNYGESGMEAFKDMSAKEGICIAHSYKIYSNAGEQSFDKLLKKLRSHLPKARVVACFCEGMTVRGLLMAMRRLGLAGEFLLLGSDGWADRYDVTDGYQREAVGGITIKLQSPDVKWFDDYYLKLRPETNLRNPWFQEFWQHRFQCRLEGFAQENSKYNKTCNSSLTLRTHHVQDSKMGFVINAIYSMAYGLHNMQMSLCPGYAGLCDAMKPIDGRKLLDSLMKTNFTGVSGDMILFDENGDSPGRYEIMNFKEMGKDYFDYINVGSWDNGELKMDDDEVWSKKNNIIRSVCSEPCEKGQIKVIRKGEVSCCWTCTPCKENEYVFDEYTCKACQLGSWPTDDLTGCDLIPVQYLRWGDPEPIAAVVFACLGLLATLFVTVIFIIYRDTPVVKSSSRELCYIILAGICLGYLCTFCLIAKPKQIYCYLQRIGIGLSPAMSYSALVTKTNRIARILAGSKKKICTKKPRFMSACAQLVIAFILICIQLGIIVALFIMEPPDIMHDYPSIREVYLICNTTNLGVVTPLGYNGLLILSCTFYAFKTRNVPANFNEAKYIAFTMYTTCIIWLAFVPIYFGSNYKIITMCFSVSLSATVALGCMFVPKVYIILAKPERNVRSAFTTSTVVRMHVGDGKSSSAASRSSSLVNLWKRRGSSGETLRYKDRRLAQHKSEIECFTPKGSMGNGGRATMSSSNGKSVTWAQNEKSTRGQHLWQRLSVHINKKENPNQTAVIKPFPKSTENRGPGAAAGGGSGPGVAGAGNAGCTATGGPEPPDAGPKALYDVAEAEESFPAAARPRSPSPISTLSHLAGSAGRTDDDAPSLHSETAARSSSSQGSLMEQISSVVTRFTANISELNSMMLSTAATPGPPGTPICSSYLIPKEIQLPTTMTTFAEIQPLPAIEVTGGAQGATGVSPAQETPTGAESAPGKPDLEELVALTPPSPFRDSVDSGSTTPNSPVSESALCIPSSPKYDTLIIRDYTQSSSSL
Sequence of Cytochrome P450 2D6 (P10635 whole entry): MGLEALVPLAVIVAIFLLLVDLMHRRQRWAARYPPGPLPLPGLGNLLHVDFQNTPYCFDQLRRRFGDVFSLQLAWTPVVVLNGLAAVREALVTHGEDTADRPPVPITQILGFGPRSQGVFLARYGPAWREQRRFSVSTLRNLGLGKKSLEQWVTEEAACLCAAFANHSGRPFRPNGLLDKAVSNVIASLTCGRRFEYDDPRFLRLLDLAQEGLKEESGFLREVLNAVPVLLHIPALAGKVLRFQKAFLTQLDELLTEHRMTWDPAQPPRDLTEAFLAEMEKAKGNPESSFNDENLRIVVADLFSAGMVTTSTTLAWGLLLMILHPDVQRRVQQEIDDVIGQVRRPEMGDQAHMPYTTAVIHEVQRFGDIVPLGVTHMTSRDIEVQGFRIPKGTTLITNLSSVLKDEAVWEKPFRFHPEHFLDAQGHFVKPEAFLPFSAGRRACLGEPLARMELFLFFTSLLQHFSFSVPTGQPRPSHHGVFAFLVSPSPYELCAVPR
Sequence of Metabotropic glutamate receptor 2 (Homo sapiens) (Q14416 19-872 limits assumed): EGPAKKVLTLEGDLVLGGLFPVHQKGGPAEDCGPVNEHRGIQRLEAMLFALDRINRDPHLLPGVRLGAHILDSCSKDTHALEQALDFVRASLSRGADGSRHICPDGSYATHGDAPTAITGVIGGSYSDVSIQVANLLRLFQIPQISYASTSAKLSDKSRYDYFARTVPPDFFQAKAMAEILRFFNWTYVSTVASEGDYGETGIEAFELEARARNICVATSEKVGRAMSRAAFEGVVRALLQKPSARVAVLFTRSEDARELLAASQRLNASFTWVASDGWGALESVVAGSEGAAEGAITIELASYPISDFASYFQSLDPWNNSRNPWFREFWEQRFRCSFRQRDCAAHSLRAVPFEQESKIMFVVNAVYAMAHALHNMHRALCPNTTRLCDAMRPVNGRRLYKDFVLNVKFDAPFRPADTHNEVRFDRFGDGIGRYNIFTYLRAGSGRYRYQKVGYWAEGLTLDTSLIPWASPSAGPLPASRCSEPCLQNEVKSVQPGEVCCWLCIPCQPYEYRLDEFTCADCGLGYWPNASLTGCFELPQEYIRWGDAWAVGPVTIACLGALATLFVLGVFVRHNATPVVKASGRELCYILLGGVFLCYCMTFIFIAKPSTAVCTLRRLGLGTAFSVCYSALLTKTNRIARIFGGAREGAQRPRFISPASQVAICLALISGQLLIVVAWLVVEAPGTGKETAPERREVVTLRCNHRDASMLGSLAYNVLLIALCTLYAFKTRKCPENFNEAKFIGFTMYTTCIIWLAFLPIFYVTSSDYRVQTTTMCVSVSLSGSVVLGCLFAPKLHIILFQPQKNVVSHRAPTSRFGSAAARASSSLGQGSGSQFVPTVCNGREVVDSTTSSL
Sequence of Metabotropic glutamate receptor 4 (Homo sapiens) (Q14833 whole entry): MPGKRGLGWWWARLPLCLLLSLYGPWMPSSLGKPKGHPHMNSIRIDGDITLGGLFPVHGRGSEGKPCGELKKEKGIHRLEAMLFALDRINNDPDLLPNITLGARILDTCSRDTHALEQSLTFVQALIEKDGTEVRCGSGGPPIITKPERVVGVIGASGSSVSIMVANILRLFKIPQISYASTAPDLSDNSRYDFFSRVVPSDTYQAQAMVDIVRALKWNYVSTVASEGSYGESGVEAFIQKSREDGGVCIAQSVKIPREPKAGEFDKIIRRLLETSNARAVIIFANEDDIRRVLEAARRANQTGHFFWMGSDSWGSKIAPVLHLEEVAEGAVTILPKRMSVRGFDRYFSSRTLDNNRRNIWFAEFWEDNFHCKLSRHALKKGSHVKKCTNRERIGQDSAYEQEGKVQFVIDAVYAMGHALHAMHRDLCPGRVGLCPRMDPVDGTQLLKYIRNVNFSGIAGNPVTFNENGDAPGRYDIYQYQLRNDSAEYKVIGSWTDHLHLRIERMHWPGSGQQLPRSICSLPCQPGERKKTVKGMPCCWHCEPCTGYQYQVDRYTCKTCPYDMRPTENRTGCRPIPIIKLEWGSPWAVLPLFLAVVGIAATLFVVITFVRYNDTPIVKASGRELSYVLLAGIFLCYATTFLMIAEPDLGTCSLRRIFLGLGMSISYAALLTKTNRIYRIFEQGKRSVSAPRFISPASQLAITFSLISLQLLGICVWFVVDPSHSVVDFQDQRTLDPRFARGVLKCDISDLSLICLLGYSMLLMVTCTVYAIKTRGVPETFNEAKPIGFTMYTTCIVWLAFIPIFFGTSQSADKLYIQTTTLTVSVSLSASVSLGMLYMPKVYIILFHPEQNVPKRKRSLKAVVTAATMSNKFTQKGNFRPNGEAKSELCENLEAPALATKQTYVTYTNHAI

IC50 [1]: > 30 µM
SMILES: Cc1ccc(C(=O)Nc2cncc(Oc3cncnc3)n2)s1

%max [2]: 12%
IC50 [1]: > 10 µM
SMILES: O=C(Nc1cncc(Oc2cncnc2)n1)c1ccccc1

%max [2]: -4.3%
SMILES: COc1cccc(C(=O)Nc2cncc(Oc3cncnc3)n2)c1

%max [2]: 7.8%
IC50 [1]: 6.37 µM
SMILES: O=C(Nc1cncc(Oc2cncc(F)c2)n1)c1cccs1

IC50 [1]: > 30 µM
SMILES: O=C(Nc1cncc(Oc2cncc(F)c2)n1)c1cc(F)cc(F)c1

%max [2]: 1.2%
IC50 [1]: 0.662 µM
SMILES: N#Cc1cccc(C(=O)Nc2cncc(Oc3cncc(F)c3)n2)c1

%max [2]: -2.8%
IC50 [1]: 4.59 µM
SMILES: O=C(Nc1cncc(Oc2cncc(F)c2)n1)c1ccc(F)c(Cl)c1

%max [2]: 20%
IC50 [1]: > 10 µM
SMILES: O=C(Nc1cncc(Oc2cncnc2)n1)c1cccs1

IC50 [1]: > 30 µM
SMILES: O=C(Nc1cncc(Oc2cncc(F)c2)n1)c1cccnc1

%max [2]: 1%
IC50 [1]: 0.894 µM
SMILES: O=C(Nc1cncc(Oc2cncc(F)c2)n1)c1cc(Cl)ccc1F

%max [2]: 2.1%
IC50 [1]: 0.199 µM
SMILES: Cc1cccc(C(=O)Nc2cncc(Oc3cncc(F)c3)n2)c1

%max [2]: 2.3%
IC50 [1]: 0.1 µM
SMILES: O=C(Nc1cncc(Oc2cncnc2)n1)c1cc(Br)ccn1

clearance [3]: 30.2 mL/min/kg
concentration at 1 h [4]: 1310 nM
Ki [5]: 0.037 µM
half-life [6]: 3.22 h
AUC [7]: 8.37 µM·h
IC50 (Cytochrome P450 2D6): > 30 µM
Papp [8]: 71.4 ×10⁻⁶ cm/s
Ratio [9]: 1.07
Cmax [10]: 1120 nM
Activity [11]: inactive
IC50 (Cytochrome P450 1A2): 0.6 µM
bioavailability [12]: 48%
%max [2]: 1.6%
Fu (Brain): 0.054
Activity [13]: inactive
IC50 [14]: 0.085 µM
Fu (Plasma [15]): 0.12
concentration at 0.5 h [16]: 3690 nM
Activity [17]: inactive
concentration at 1 h [18]: 1690 nM
Tmax [19]: 4 h
concentration at 1 h [20]: 1450 nM
Papp [21]: 66.8 ×10⁻⁶ cm/s
Vd [22]: 2.7 L/kg
Activity [23]: inactive
Papp (MDCK [24]): 45 ×10⁻⁶ cm/s
concentration at 1 h [25]: 2800 nM
IC50 (Cytochrome P450 2C9): > 30 µM
concentration at 0.5 h [26]: 3000 nM
concentration at 0.25 h [27]: 3990 nM
Activity [28]: inactive
IC50 (Cytochrome P450 3A4): > 30 µM
Papp (MDCK [29]): 50.4 ×10⁻⁶ cm/s
concentration at 0.25 h [30]: 6210 nM
Ratio (MDCK [31]): 0.89
Activity [32]: inactive
concentration at 1 h [33]: 920 nM
AUC [34]: 1.73 µM·h
IC50 [1]: 0.0624 µM
Kp at 1 h [35]: 1.6
Activity [36]: inactive
Fu (Plasma [37]): 0.179
Fu (Plasma [38]): 0.167
SMILES: O=C(Nc1cncc(Oc2cncnc2)n1)c1cc(Cl)ccn1
Activity (Mus musculus): Active

SMILES: O=C(Nc1ccnc(Oc2cccnc2)c1)c1cccc(Cl)c1
IC50 [1]: 3.7 µM

%max [2]: 20%
IC50 [1]: > 10 µM
SMILES: Cc1csc(C(=O)Nc2cncc(Oc3cncc(F)c3)n2)n1

IC50 [1]: > 30 µM
SMILES: N#Cc1cc(F)cc(C(=O)Nc2cncc(Oc3cncc(F)c3)n2)c1

IC50 [1]: > 30 µM
SMILES: O=C(Nc1cncc(Oc2cncc(F)c2)n1)c1cccc(Cl)n1

%max [2]: 1.5%
IC50 [1]: 5.14 µM
SMILES: O=C(Nc1cncc(Oc2cncnc2)n1)c1cccc(F)c1

%max [2]: 6.6%
SMILES: Cc1cc(C)cc(C(=O)Nc2cncc(Oc3cncc(F)c3)n2)c1

%max [2]: 48%
IC50 [1]: > 10 µM
SMILES: O=C(Nc1cncc(Oc2cncc(F)c2)n1)c1cc(F)cc(Cl)c1

%max [2]: 0.1%
SMILES: O=C(Nc1cncc(Oc2cncc(F)c2)n1)c1ccsc1

%max [2]: 52%
IC50 [1]: > 10 µM
SMILES: CN(C)c1cccc(C(=O)Nc2cncc(Oc3cncc(F)c3)n2)c1
